Results reported in US8802597B2, “Herbicidal pyrimidines” (E I du Pont de Nemours and Company, priority 2003, dated 2014).

Legend:
Format in all cases: in vivo
[1] = system: barnyardgrass (Echinochloa crus-galli); assay: Test A pre/postemergence
Method in brief: (§1)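 Seeds in loam–sand blend received preemergence directed soil spray and, concurrently, postemergence application (plants 2–10 cm, 1–2-leaf stage) of compound in non-phytotoxic solvent with surfactant. After about ten days in greenhouse, injury rated visually versus untreated controls, 0 (no effect) to 100 (complete control).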

[2] = system: crabgrass (Digitaria sanguinalis); assay: Test A pre/postemergence
Method in brief: as §1

[3] = system: giant foxtail (Setaria faberi); assay: Test A pre/postemergence
Method in brief: as §1

[4] = system: morningglory (Ipomoea spp.); assay: Test A pre/postemergence
Method in brief: as §1

[5] = system: redroot pigweed (Amaranthus retroflexus); assay: Test A pre/postemergence
Method in brief: as §1

[6] = system: velvetleaf (Abutilon theophrasti); assay: Test A pre/postemergence
Method in brief: as §1

[7] = system: barnyardgrass (Echinochloa crus-galli); assay: Test E flooded paddy water application; details: Flood, 21 days, scale 0 to 100 (0 no effect, 100 complete control)
From the text: (§2) Three plastic pots (ca. 16-cm diameter) per rate were partially filled with sterilized Tama silt loam soil comprising a 35:50:15 ratio of sand, silt and clay and 2.6% organic matter. Separate plantings for each of the three pots were as follows. Seeds from the U.S. of ducksalad (Heteranthera limosa), smallflower umbrella sedge (Cyperus difformis) and purple redstem (Ammannia coccinea), were planted into one 16-cm pot for each rate. Seeds from the U.S. of rice flatsedge (Cyperus iria), bearded (brdd.) sprangletop (Leptochloa fusca ssp. fascicularis), one stand of 9 or 10 water seeded rice seedlings (Oryza sativa cv. ‘Japonica-M202’), and one stand of 6 transplanted rice seedlings (Oryza sativa cv. ‘Japonica-M202’) were planted into one 16-cm pot for each rate. Seeds from the U.S. of barnyardgrass (Echinochloa crus-galli), late watergrass (Echinochloa oryzicola), early watergrass (Echinochloa oryzoides) and junglerice (Echinochloa colona) were planted into one 16-cm pot for each rate. Plantings were sequential so that crop and weed species were at the 2.0 to 2.5-leaf stage at time of treatment.
(§3) Potted plants were grown in a greenhouse with day/night temperature settings of 29.5/26.7° C., and supplemental balanced lighting was provided to maintain a 16-hour photoperiod. Test pots were maintained in the greenhouse until test completion.
(§4) At time of treatment, test pots were flooded to 3 cm above the soil surface, treated by application of test compounds directly to the paddy water, and then maintained at that water depth for the duration of the test. Effects of treatments on rice and weeds were visually evaluated by comparison to untreated controls after 21 days. Plant response ratings, summarized in Table E, are based on a scale of 0 to 100 where 0 is no effect and 100 is complete control. A dash (-) response means no test result.

[8] = system: bearded (brdd.) sprangletop (Leptochloa fusca ssp. fascicularis); assay: Test E flooded paddy water application; details: Flood, 21 days, scale 0 to 100 (0 no effect, 100 complete control)
From the text: as §2, §3, §4

[9] = system: ducksalad (Heteranthera limosa); assay: Test E flooded paddy water application; details: Flood, 21 days, scale 0 to 100 (0 no effect, 100 complete control)
From the text: as §2, §3, §4

[10] = system: early watergrass (Echinochloa oryzoides); assay: Test E flooded paddy water application; details: Flood, 21 days, scale 0 to 100 (0 no effect, 100 complete control)
From the text: as §2, §3, §4

[11] = system: junglerice (Echinochloa colona); assay: Test E flooded paddy water application; details: Flood, 21 days, scale 0 to 100 (0 no effect, 100 complete control)
From the text: as §2, §3, §4

[12] = system: late watergrass (Echinochloa oryzicola); assay: Test E flooded paddy water application; details: Flood, 21 days, scale 0 to 100 (0 no effect, 100 complete control)
From the text: as §2, §3, §4

[13] = system: purple redstem (Ammannia coccinea); assay: Test E flooded paddy water application; details: Flood, 21 days, scale 0 to 100 (0 no effect, 100 complete control)
From the text: as §2, §3, §4

[14] = system: rice flatsedge (Cyperus iria); assay: Test E flooded paddy water application; details: Flood, 21 days, scale 0 to 100 (0 no effect, 100 complete control)
From the text: as §2, §3, §4

[15] = system: smallflower umbrella sedge (Cyperus difformis); assay: Test E flooded paddy water application; details: Flood, 21 days, scale 0 to 100 (0 no effect, 100 complete control)
From the text: as §2, §3, §4

[16] = system: transplanted rice seedlings (Oryza sativa cv. ‘Japonica-M202’); assay: Test E flooded paddy water application; details: Flood, 21 days, scale 0 to 100 (0 no effect, 100 complete control)
From the text: as §2, §3, §4

[17] = system: water seeded rice seedlings (Oryza sativa cv. ‘Japonica-M202’); assay: Test E flooded paddy water application; details: Flood, 21 days, scale 0 to 100 (0 no effect, 100 complete control)
From the text: as §2, §3, §4

[18] = Postemergence, 125 g ai/ha, 0 to 100 scale (0 no effect, 100 complete control)
[19] = Postemergence, 500 g ai/ha, 0 to 100 scale (0 no effect, 100 complete control)
[20] = Preemergence, 125 g ai/ha, 0 to 100 scale where 0 is no effect and 100 is complete control, approximately ten days
[21] = Preemergence, 500 g ai/ha, 0 to 100 scale where 0 is no effect and 100 is complete control, approximately ten days

CCOC(=O)c1nc(-c2ccc(C)c(C)c2)nc(N)c1Cl [Compound 71]
Plant response rating, Barnyardgrass [1, 18]: 0
Plant response rating, Barnyardgrass [1, 19]: 0
Plant response rating, Barnyardgrass [1, 20]: 0
Plant response rating, Barnyardgrass [1, 21]: 0
Plant response rating, Crabgrass [2, 18]: 0
Plant response rating, Crabgrass [2, 19]: 5
Plant response rating, Crabgrass [2, 20]: 0
Plant response rating, Crabgrass [2, 21]: 0
Plant response rating, Foxtail, Giant [3, 18]: 0
Plant response rating, Foxtail, Giant [3, 19]: 0
Plant response rating, Foxtail, Giant [3, 20]: 0
Plant response rating, Foxtail, Giant [3, 21]: 0
Plant response rating, Morningglory [4, 18]: 0
Plant response rating, Morningglory [4, 19]: 0
Plant response rating, Morningglory [4, 20]: 0
Plant response rating, Morningglory [4, 21]: 0
Plant response rating, Pigweed [5, 18]: 5
Plant response rating, Pigweed [5, 19]: 30
Plant response rating, Pigweed [5, 20]: 0
Plant response rating, Pigweed [5, 21]: 15
Plant response rating, Velvetleaf [6, 18]: 40
Plant response rating, Velvetleaf [6, 19]: 55
Plant response rating, Velvetleaf [6, 20]: 30
Plant response rating, Velvetleaf [6, 21]: 50
Barnyardgrass plant response rating ([7]; 32 g ai/ha): 0
Barnyardgrass plant response rating ([7]; 64 g ai/ha): 0
Barnyardgrass plant response rating ([7]; 125 g ai/ha): 0
Barnyardgrass plant response rating ([7]; 250 g ai/ha): 60
Plant response rating, Barnyardgrass ([7]; 16 g ai/ha): 0
Sprangletop, Brdd. plant response rating ([8]; 32 g ai/ha): 0
Sprangletop, Brdd. plant response rating ([8]; 125 g ai/ha): 0
Sprangletop, Brdd. plant response rating ([8]; 250 g ai/ha): 60
Ducksalad plant response rating ([9]; 32 g ai/ha): 100
Ducksalad plant response rating ([9]; 64 g ai/ha): 100
Ducksalad plant response rating ([9]; 125 g ai/ha): 100
Ducksalad plant response rating ([9]; 250 g ai/ha): 100
Plant response rating, Ducksalad ([9]; 16 g ai/ha): 100
Watergrass, Early plant response rating ([10]; 32 g ai/ha): 0
Watergrass, Early plant response rating ([10]; 64 g ai/ha): 0
Watergrass, Early plant response rating ([10]; 125 g ai/ha): 0
Watergrass, Early plant response rating ([10]; 250 g ai/ha): 0
Plant response rating, Watergrass, Early ([10]; 16 g ai/ha): 0
Junglerice plant response rating ([11]; 32 g ai/ha): 0
Junglerice plant response rating ([11]; 64 g ai/ha): 0
Junglerice plant response rating ([11]; 125 g ai/ha): 0
Junglerice plant response rating ([11]; 250 g ai/ha): 45
Plant response rating, Junglerice ([11]; 16 g ai/ha): 0
Watergrass, Late plant response rating ([12]; 32 g ai/ha): 0
Watergrass, Late plant response rating ([12]; 64 g ai/ha): 0
Watergrass, Late plant response rating ([12]; 125 g ai/ha): 0
Watergrass, Late plant response rating ([12]; 250 g ai/ha): 0
Plant response rating, Watergrass, Late ([12]; 16 g ai/ha): 0
Redstem plant response rating ([13]; 32 g ai/ha): 0
Redstem plant response rating ([13]; 64 g ai/ha): 0
Redstem plant response rating ([13]; 125 g ai/ha): 0
Redstem plant response rating ([13]; 250 g ai/ha): 30
Plant response rating, Redstem ([13]; 16 g ai/ha): 0
Flatsedge, Rice plant response rating ([14]; 32 g ai/ha): 0
Flatsedge, Rice plant response rating ([14]; 64 g ai/ha): 0
Flatsedge, Rice plant response rating ([14]; 125 g ai/ha): 0
Flatsedge, Rice plant response rating ([14]; 250 g ai/ha): 0
Plant response rating, Flatsedge, Rice ([14]; 16 g ai/ha): 0
Sedge, Umbrella plant response rating ([15]; 32 g ai/ha): 0
Sedge, Umbrella plant response rating ([15]; 64 g ai/ha): 0
Sedge, Umbrella plant response rating ([15]; 125 g ai/ha): 30
Sedge, Umbrella plant response rating ([15]; 250 g ai/ha): 70
Plant response rating, Sedge, Umbrella ([15]; 16 g ai/ha): 0
Rice, Transplanted plant response rating ([16]; 32 g ai/ha): 0
Rice, Transplanted plant response rating ([16]; 64 g ai/ha): 0
Rice, Transplanted plant response rating ([16]; 125 g ai/ha): 0
Rice, Transplanted plant response rating ([16]; 250 g ai/ha): 0
Plant response rating, Rice, Transplanted ([16]; 16 g ai/ha): 0
Rice, Water Seeded plant response rating ([17]; 32 g ai/ha): 0
Rice, Water Seeded plant response rating ([17]; 64 g ai/ha): 0
Rice, Water Seeded plant response rating ([17]; 125 g ai/ha): 0
Rice, Water Seeded plant response rating ([17]; 250 g ai/ha): 0
Plant response rating, Rice, Water Seeded ([17]; 16 g ai/ha): 0
